Reference: ChEMBL document CHEMBL2016501, “Design, synthesis, and biological activity of novel 1,4-disubstituted piperidine/piperazine derivatives as CCR5 antagonist-based HIV-1 entry inhibitors” (Bioorg Med Chem Lett, 2012)

What was measured:
[1] = tested on: Human immunodeficiency virus 1; experiment: Antiviral against R5 tropic HIV1 Bal infected in human CEMx174 5.25M7 cells assessed as inhibition of viral replication; format: functional, organism-based; details: Human immunodeficiency virus 1, Bal
[2] = Cytotoxicity against human CEMx174 5.25M7; details: CEMx174 5.25M7 cells
[3] = Selectivity ratio of CC50 for human CEMx174 5.25M7 cells to IC50 for HIV1 Bal infected in CEMx174 5.25M7 cells; format: ADME, cell-based; details: read-out: Ratio CC50/IC50
[4] = Terminal half life in Sprague-Dawley rat at 1 mg/kg, iv; format: ADME, organism-based; set-up: dose 1 mg/kg, route intravenous; details: in vivo, read-out: beta t1/2 (converted)
[5] = Terminal half life in Sprague-Dawley rat at 5 mg/kg, po; format: ADME, organism-based; set-up: dose 5 mg/kg, route oral; details: in vivo, read-out: beta t1/2 (converted)
[6] = AUC (0 to 12 hrs) in Sprague-Dawley rat at 1 mg/kg, iv; format: ADME, organism-based; set-up: time < 12 hr, dose 1 mg/kg, route intravenous; details: plasma
[7] = AUC (0 to 12 hrs) in Sprague-Dawley rat at 5 mg/kg, po; format: ADME, organism-based; set-up: time < 12 hr, dose 5 mg/kg, route oral; details: plasma
[8] = Oral bioavailability in Sprague-Dawley rat at 5 mg/kg; format: ADME, organism-based; details: in vivo
[9] = biological target: Voltage-gated inwardly rectifying potassium channel KCNH2 (Homo sapiens, UniProt Q12809); experiment: Inhibition of human Erg expressed in HEK293 cells by whole cell patch clamp assay; format: cell-based
hERG = experiment: Selectivity ratio of IC50 for human Erg to IC50 for HIV1 Bal infected in human CEMx174 5.25 cells; format: ADME, cell-based; details: HIV1 Bal infected CEMx174 5.25 cells, read-out: Ratio IC50
[10] = Solubility of the compound in 10 mM phosphate sodium buffer at pH 7.4 at 25 degC; format: physicochemical
[11] = tested on: Human immunodeficiency virus 1; experiment: Antiviral activity against HIV1; format: functional, organism-based

Sequence of Voltage-gated inwardly rectifying potassium channel KCNH2 (Q12809 whole entry): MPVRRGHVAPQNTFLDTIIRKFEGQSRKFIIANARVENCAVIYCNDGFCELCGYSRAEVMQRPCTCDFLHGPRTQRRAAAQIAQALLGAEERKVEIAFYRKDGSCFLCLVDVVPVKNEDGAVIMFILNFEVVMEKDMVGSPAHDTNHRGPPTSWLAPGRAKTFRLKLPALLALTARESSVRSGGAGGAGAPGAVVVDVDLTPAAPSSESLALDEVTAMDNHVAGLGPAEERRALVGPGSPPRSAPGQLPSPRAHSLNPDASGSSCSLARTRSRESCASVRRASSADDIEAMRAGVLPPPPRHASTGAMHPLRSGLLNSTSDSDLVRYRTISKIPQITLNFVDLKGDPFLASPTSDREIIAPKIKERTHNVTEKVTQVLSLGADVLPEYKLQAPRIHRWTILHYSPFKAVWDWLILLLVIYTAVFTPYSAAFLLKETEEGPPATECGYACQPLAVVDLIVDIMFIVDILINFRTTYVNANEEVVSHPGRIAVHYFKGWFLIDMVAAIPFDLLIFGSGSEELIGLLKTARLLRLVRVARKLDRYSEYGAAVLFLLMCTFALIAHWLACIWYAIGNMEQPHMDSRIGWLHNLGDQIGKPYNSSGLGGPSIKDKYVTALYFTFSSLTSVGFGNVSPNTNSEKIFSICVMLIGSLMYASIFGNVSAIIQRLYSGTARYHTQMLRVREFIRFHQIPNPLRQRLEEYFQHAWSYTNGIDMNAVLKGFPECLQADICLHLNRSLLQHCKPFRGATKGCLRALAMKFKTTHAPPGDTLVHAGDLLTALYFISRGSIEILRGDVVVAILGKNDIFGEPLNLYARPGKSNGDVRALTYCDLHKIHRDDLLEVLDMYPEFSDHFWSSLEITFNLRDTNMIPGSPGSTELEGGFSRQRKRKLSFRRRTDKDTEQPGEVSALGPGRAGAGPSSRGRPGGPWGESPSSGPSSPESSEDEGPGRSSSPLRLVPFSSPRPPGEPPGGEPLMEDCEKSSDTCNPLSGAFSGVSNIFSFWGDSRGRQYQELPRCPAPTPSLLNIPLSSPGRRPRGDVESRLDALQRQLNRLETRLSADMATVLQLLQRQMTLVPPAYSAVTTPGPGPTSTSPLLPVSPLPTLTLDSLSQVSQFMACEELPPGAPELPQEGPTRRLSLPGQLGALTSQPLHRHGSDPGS

| Compound | IC50 [1] [nM] | CC50 [2] [nM] | selectivity ratio [3] | other results |
| --- | --- | --- | --- | --- |
| CC(=O)N1CCC(C(=O)N(CCCN2CCN(Cc3ccc(Cl)cc3)CC2)c2ccc(C)c(Cl)c2)CC1 | 6.56 | 37600 | 5730 | – |
| CCN(Cc1ccccc1)C(=O)C1CCN(CCCN(C(=O)C2CCN(C(C)=O)CC2)c2ccc(C)c(Cl)c2)CC1 | 59.9 | 83800 | 1400 | – |
| CC(=O)N1CCC(C(=O)N(CCCN2CCC(CNC(=O)c3cnccn3)CC2)c2ccc(C)c(Cl)c2)CC1 | 20.3 | > 52400 | > 2580 | – |
| CC(=O)N1CCC(C(=O)N(CCCN2CCC(CNC(=O)c3ccsc3)CC2)c2ccc(C)c(Cl)c2)CC1 | 87.5 | > 51900 | > 593 | – |
| CC(=O)N1CCC(C(=O)N(CCCN2CCC(CNc3cc(C)ccn3)CC2)c2ccc(C)c(Cl)c2)CC1 | 1830 | 17900 | 10 | – |
| CC(=O)N1CCC(C(=O)N(CCCN2CCC(CNc3ncccn3)CC2)c2ccc(C)c(Cl)c2)CC1 | 10.2 | > 55100 | > 5330 | – |
| CC(=O)N1CCC(C(=O)N(CCCN2CCC(Oc3ccccc3)CC2)c2ccc(C)c(Cl)c2)CC1 | 52.3 | > 56600 | > 1080 | – |
| CC(=O)N1CCC(C(=O)N(CCCN2CCN(Cc3ccccc3)CC2)c2ccc(C)c(Cl)c2)CC1 | 14.9 | 101000 | 6800 | – |
| CC(=O)N1CCC(C(=O)N(CCCN2CCN(C(=O)c3ccccc3)CC2)c2ccc(C)c(Cl)c2)CC1 | 147 | 97800 | 663 | – |
| CC(=O)N1CCC(C(=O)N(CCCN2CCN(Cc3cnc(Cl)s3)CC2)c2ccc(C)c(Cl)c2)CC1 | 11.6 | > 52400 | > 4510 | – |
| CC(=O)N1CCC(C(=O)N(CCCN2CCN(Cc3ccncc3)CC2)c2ccc(C)c(Cl)c2)CC1 | 9.07 | > 56700 | > 6150 | – |
| CC(=O)N1CCC(C(=O)N(CCCN2CCN(Cc3cccnc3)CC2)c2ccc(C)c(Cl)c2)CC1 | 32.7 | > 56700 | > 1740 | – |
| CC(=O)N1CCC(C(=O)N(CCCN2CCN(Cc3ccc(Cl)nc3)CC2)c2ccc(C)c(Cl)c2)CC1 | 3.63 | > 53100 | > 14500 | – |
| CC(=O)N1CCC(C(=O)N(CCCN2CCN(Cc3ccc(F)cc3)CC2)c2ccc(C)c(Cl)c2)CC1.Cl | 6.17 | > 100000 | > 16200 | half-life [4]: 0.59 h; half-life [5]: 0.76 h; AUC(0-t) at 12 h [6]: 209 ng·h/mL; AUC(0-t) at 12 h [7]: 587 ng·h/mL; bioavailability [8]: 56%; IC50 [9]: 1820 nM; selectivity ratio (hERG): 295; solubility [10]: 25000 µg/mL |
| CC(=O)N1CCC(C(=O)N(CCCN2CCN(Cc3ccc(S(C)(=O)=O)cc3)CC2)c2ccc(C)c(Cl)c2)CC1 | 3.99 | > 49300 | > 12100 | – |
| CC(=O)N1CCC(C(=O)N(CCCN2CCN(c3ccccn3)CC2)c2ccc(C)c(Cl)c2)CC1 | 56.3 | > 58300 | > 1040 | – |
| CC(=O)N1CCC(C(=O)N(CCCN2CCN(Cc3ccc(C#N)cc3)CC2)c2ccc(C)c(Cl)c2)CC1 | 9.01 | > 100000 | > 11100 | – |
| CC(=O)N1CCC(C(=O)N(CCCN2CCN(Cc3ccc(C(F)(F)F)cc3)CC2)c2ccc(C)c(Cl)c2)CC1 | 1.85 | 30500 | 16500 | – |
| CC(=O)N1CCC(C(=O)N(CCCN2CCC(Cc3ccc(C(N)=O)cc3)CC2)c2ccc(C)c(Cl)c2)CC1.Cl | 2.48 | > 100000 | > 40300 | half-life [4]: 2.25 h; half-life [5]: 4.25 h; AUC(0-t) at 12 h [6]: 328 ng·h/mL; AUC(0-t) at 12 h [7]: 22.7 ng·h/mL; bioavailability [8]: 1.4%; solubility [10]: 2000 µg/mL |
| CCN(C(=O)Cc1ccccc1)C1CCN(CCCN(C(=O)C2CCN(C(C)=O)CC2)c2ccc(C)c(Cl)c2)CC1.Cl | 5.23 | 36200 | 6920 | solubility [10]: < 2000 µg/mL; EC50 [11]: 2.5 nM |
| CC(=O)N1CCC(C(=O)N(CCCN2CC3CN(C(=O)c4c(C)ncnc4C)CC3C2)c2ccc(C)c(Cl)c2)CC1 (configuration not stated) | – | – | – | EC50 [11]: 2.7 nM |
